Target: EZH2 (Homo sapiens (Human), UniProt Q15910)
Assay: PRC2 enzyme assay on peptide substrates
Format: biochemical
Conditions: PRC2 enzyme assays on peptide substrates; 4 nM enzyme, 30 min preincubation at 25° C.; read-out: EZH2 IC50

EZH2, sequence (Q15910 other isoform, or with tags, fused parts or gaps): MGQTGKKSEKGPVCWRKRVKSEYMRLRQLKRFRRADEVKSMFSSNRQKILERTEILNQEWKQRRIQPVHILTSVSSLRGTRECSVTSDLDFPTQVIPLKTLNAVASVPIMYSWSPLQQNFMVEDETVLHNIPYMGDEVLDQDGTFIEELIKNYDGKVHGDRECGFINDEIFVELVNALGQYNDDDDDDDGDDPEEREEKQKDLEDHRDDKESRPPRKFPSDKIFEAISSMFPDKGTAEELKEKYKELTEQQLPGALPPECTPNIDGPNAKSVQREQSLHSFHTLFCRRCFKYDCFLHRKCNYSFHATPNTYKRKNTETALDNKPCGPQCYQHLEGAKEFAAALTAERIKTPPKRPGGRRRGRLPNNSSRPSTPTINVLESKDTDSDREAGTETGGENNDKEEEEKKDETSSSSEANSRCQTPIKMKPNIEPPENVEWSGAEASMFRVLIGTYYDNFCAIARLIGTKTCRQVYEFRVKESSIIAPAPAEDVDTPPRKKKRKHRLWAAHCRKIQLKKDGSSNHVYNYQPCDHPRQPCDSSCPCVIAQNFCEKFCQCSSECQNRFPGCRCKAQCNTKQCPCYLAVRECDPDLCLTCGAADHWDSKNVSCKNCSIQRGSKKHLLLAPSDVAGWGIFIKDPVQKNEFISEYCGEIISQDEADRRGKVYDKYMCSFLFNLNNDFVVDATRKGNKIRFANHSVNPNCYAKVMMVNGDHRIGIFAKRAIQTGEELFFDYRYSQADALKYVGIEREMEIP
EZH2, sequence (O75530 whole entry partner): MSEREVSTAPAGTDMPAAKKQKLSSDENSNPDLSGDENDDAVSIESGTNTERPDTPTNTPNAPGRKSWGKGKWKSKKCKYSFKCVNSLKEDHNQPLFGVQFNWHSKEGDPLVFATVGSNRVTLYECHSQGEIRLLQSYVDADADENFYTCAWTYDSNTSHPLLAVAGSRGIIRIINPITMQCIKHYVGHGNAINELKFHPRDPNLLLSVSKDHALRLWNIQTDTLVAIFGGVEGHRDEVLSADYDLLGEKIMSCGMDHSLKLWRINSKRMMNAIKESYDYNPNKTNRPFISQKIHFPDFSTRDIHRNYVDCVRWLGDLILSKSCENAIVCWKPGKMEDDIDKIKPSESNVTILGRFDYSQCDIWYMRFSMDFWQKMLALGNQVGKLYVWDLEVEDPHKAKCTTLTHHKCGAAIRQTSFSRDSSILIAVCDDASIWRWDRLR
EZH2, sequence (Q15022 whole entry partner): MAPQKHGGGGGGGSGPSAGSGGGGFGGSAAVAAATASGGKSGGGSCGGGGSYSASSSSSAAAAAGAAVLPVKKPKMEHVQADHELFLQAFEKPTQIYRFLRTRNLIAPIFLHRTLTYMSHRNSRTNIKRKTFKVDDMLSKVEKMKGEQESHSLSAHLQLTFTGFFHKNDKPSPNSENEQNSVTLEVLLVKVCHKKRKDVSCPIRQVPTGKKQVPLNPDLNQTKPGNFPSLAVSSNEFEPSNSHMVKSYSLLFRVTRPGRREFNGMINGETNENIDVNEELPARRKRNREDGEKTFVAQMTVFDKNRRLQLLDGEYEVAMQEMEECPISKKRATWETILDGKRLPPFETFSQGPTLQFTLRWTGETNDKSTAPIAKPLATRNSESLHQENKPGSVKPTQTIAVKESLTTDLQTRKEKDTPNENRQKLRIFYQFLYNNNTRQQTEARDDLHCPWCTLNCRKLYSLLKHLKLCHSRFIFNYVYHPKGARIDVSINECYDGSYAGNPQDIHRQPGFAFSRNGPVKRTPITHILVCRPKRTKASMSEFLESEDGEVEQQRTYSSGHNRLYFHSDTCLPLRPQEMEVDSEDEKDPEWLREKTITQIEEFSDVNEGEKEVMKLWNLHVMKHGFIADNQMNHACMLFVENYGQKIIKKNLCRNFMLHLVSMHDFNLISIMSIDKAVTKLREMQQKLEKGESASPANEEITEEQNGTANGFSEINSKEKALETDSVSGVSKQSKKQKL
EZH2, sequence (Q09028 whole entry partner): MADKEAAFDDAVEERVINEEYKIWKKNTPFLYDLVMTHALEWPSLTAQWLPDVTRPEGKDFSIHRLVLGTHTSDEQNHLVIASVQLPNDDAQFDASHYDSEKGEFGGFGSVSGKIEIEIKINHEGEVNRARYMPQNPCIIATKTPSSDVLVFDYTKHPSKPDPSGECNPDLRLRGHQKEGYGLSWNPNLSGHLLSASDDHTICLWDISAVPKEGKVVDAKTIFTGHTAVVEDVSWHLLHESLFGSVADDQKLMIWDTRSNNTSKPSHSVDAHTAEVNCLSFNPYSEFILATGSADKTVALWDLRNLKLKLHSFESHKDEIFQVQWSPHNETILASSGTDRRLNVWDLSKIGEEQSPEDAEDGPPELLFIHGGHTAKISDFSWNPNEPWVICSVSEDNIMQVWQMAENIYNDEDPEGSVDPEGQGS

SMILES | IC50
Cc1cc(C)c(CNC(=O)c2cc(-c3cccc(OCCCN(C)C)c3)cc3c2cnn3C2CCCC2)c(=O)[nH]1 [Compound C-11, 1-cyclopentyl-N-((4,6-dimethyl-2-oxo-1,2-dihydropyridin-3-yl)methyl)-6-(3-(3-(dimethylamino)propoxy)phenyl)-1H-indazole-4-carboxamide] | < 0.3 µM
CCn1ncc2c(C(=O)NCc3c(C)cc(C)[nH]c3=O)cc(C3=CC(C)(C)NC(C)(C)C3)nc21 [Compound B-131] | 3 to 10 µM
Cc1cc(C)c(CNC(=O)c2cc(C3CCN(C(=O)CN)CC3)nc3c2cnn3C(C)C)c(=O)[nH]1 [Compound B-79] | 0.3 to 1 µM
Cc1cc(C)c(CNC(=O)c2cc(C(=O)N3CCN(C)CC3)nc3c2cnn3C(C)C)c(=O)[nH]1 [Compound B-138] | 3 to 10 µM
Cc1cc(C)c(CNC(=O)c2cc(C3=CCN(C(=O)C4CCCN(C)C4)CC3)nc3c2cnn3C(C)C)c(=O)[nH]1 (centres unmarked) [Compound B-32, N-((4,6-dimethyl-2-oxo-1,2-dihydropyridin-3-yl)methyl)-1-isopropyl-6-(1-(1-methylpiperidine-3-carbonyl)-1,2,3,6-tetrahydropyridin-4-yl)-1H-pyrazolo[3,4-b]pyridine-4-carboxamide] | < 0.3 µM
Cc1cc(CN2CCC(N3CCCCC3)CC2)c(CNC(=O)c2cc(Br)cc3c2cnn3C2CCCC2)c(=O)[nH]1 [Compound D-79] | 1 to 3 µM
Cc1cc(C)c(CNC(=O)c2cc(-c3cccc(CNCCN)c3)nc3c2cnn3C(C)C)c(=O)[nH]1 [Compound A-26] | 0.3 to 1 µM
CC1=CC(C)=C(CNC(=O)c2cc(-c3cccc(CNCCCN(C)C)c3)nc3c2cnn3C(C)C)C(C)N1 (centres unmarked) [Compound A-125] | 1 to 3 µM
Cc1cc(C)c(CNC(=O)c2cc(-c3ccc(OCCCN(C)C)cc3)cc3c2cnn3C2CCCC2)c(=O)[nH]1 [Compound C-35] | < 0.3 µM
Cc1cc(CNCC2CCOCC2)c(CNC(=O)c2cccc3c2cnn3C2CCCC2)c(=O)[nH]1 [Compound D-89] | 10 to 50 µM
Cc1cc(C)c(CNC(=O)c2cc(C3=CCNCC3)cc3c2cnn3C2CCCC2)c(=O)[nH]1 [Compound D-41] | < 0.3 µM
Cc1cc(C)c(CNC(=O)c2cc(-c3cccc(CN(C)CCN4CCCC4)c3)cc3c2cnn3C(C)C)c(=O)[nH]1 [Compound A-41] | 0.3 to 1 µM
Cc1cc(C)c(CNC(=O)c2cc(CO)nc3c2cnn3C(C)C)c(=O)[nH]1 [Compound B-113] | 1 to 3 µM
Cc1cc(C)c(CNC(=O)c2cc(C(=O)NCCN(C)C)nc3c2cnn3C(C)C)c(=O)[nH]1 [Compound B-140] | 3 to 10 µM
Cc1cc(C)c(CNC(=O)c2cc(C3CCN(CCC(F)(F)F)CC3)nc3c2cnn3C(C)C)c(=O)[nH]1 [Compound B-71] | 0.3 to 1 µM
Cc1cc(C)c(CNC(=O)c2cc(CO)cc3c2cnn3C2CCCC2)c(=O)[nH]1 [Compound D-8, 1-cyclopentyl-N-((4,6-dimethyl-2-oxo-1,2-dihydropyridin-3-yl)methyl)-6-(hydroxymethyl)-1H-indazole-4-carboxamide] | 0.3 to 1 µM
Cc1cc(C)c(CNC(=O)c2cc(Br)cc3c2cnn3C2CCN(C(C)C)CC2)c(=O)[nH]1 [Compound D-70] | 1 to 3 µM
Cc1cc(C)c(CNC(=O)c2cc(C3=CC(C)(C)NC(C)(C)C3)nc3c2cnn3C2CCN(Cc3ccccc3)CC2)c(=O)[nH]1 [Compound B-1, 1-(1-benzylpiperidin-4-yl)-N-((4,6-dimethyl-2-oxo-1,2-dihydropyridin-3-yl)methyl)-6-(2,2,6,6-tetramethyl-1,2,3,6-tetrahydropyridin-4-yl)-1H-pyrazolo[3,4-b]pyridine-4-carboxamide] | < 0.3 µM
Cc1cc(C)c(CNC(=O)c2cc(CNCCN(C)C)cc3c2cnn3C2CCCC2)c(=O)[nH]1 [Compound D-53] | 0.3 to 1 µM
Cc1cc(C)c(CNC(=O)c2cc(-c3ccc(N4CCN(C(=O)OC(C)(C)C)CC4)nc3)nc3c2cnn3C(C)C)c(=O)[nH]1 [Compound A-6, tert-butyl 4-(5-(4-(((4,6-dimethyl-2-oxo-1,2-dihydropyridin-3-yl)methyl)carbamoyl)-1-isopropyl-1H-pyrazolo[3,4-b]pyridin-6-yl)pyridin-2-yl)piperazine-1-carboxylate] | 0.3 to 1 µM
Cc1cc(C)c(CNC(=O)c2cc(C3=CCN(C4CCN(S(C)(=O)=O)CC4)CC3)nc3c2cnn3C(C)C)c(=O)[nH]1 [Compound B-40] | 0.3 to 1 µM
Cc1cc(C)c(CNC(=O)c2cc(-c3ccc(N4CCNCC4)cc3)nc3c2cnn3C(C)C)c(=O)[nH]1 [Compound A-7, N-((4,6-dimethyl-2-oxo-1,2-dihydropyridin-3-yl)methyl)-1-isopropyl-6-(4-(piperazin-1-yl)phenyl)-1H-pyrazolo[3,4-b]pyridine-4-carboxamide] | < 0.3 µM
CCOc1ccc(S(=O)(=O)N2CCN(C)CC2)cc1-c1cc(C(=O)NCc2c(C)cc(C)[nH]c2=O)c2cnn(C3CCCC3)c2c1 [Compound C-27] | < 0.3 µM
Cc1cc(CN(C)CCCN(C)C)c(CNC(=O)c2cccc3c2cnn3C2CCCC2)c(=O)[nH]1 [Compound D-80] | 1 to 3 µM

SMILES | IC50
Cc1cc(C)c(CNC(=O)c2cc(N)nc3c2cnn3C(C)C)c(=O)[nH]1 [Compound B-125] | 3 to 10 µM
Cc1cc(C)c(CNC(=O)c2cc(N3CCC(C4CCNCC4)CC3)nc3c2cnn3C(C)C)c(=O)[nH]1 [Compound B-48] | 0.3 to 1 µM
Cc1cc(C)c(CNC(=O)c2cc(-c3ccc(N4CCN(C(=O)OC(C)(C)C)CC4)cc3)nc3c2cnn3C(C)C)c(=O)[nH]1 [Compound A-51] | 1 to 3 µM
Cc1cc(C)c(CNC(=O)c2cc(CN3CCC[C@@H]3C(N)=O)cc3c2cnn3C2CCCC2)c(=O)[nH]1 [Compound D-93] | 0.3 to 1 µM
Cc1cc(C)c(CNC(=O)c2cc(C3=CCN(CCC(F)(F)F)CC3)nc3c2cnn3C(C)C)c(=O)[nH]1 [Compound B-84] | 0.3 to 1 µM
Cc1cc[nH]c(=O)c1CNC(=O)c1cc(-c2cccc(CN3CCN(C)CC3)c2)nc2c1cnn2C(C)C [Compound A-72] | 10 to 50 µM
Cc1cc(C)c(CNC(=O)c2cc(-c3cccc(C(=O)NCCCN(C)C)c3)nc3c2cnn3C(C)C)c(=O)[nH]1 [Compound A-13, N-((4,6-dimethyl-2-oxo-1,2-dihydropyridin-3-yl)methyl)-6-(3-((3-(dimethylamino)propyl)carbamoyl)phenyl)-1-isopropyl-1H-pyrazolo[3,4-b]pyridine-4-carboxamide] | < 0.3 µM
Cc1cc(C)c(CNC(=O)c2cc(C3CCN(C4CCNCC4)CC3)nc3c2cnn3C(C)C)c(=O)[nH]1 [Compound B-29, 6-([1,4′-bipiperidin]-4-yl)-N-((4,6-dimethyl-2-oxo-1,2-dihydropyridin-3-yl)methyl)-1-isopropyl-1H-pyrazolo[3,4-b]pyridine-4-carboxamide] | < 0.3 µM
Cc1cc(C)c(CNC(=O)c2cc(CN(C)CCN(C)C)cc3c2cnn3C2CCCC2)c(=O)[nH]1 [Compound D-78] | 1 to 3 µM
CC(=O)n1ncc2c(C(=O)NCc3c(C)cc(C)[nH]c3=O)cc(C3=CC(C)(C)NC(C)(C)C3)nc21 [Compound B-154] | 10 to 50 µM
Cc1cc(C)c(CNC(=O)c2cc(C3=CC(C)(C)NC(C)(C)C3)nc3c2cnn3CC(F)(F)F)c(=O)[nH]1 [Compound B-164] | 3 to 10 µM
Cc1cc(C)c(CNC(=O)c2cc(-c3ccc(COCCN4CCOCC4)cc3)cc3c2cnn3C2CCCC2)c(=O)[nH]1 [Compound C-20] | < 0.3 µM
Cc1cc(C)c(CNC(=O)c2cc(Br)cc3c2cnn3C2CCN(C(=O)CN(C)C)CC2)c(=O)[nH]1 [Compound D-29] | 0.3 to 1 µM
Cc1cc(C)c(CNC(=O)c2cc(C3CCNCC3)nc3c2cnn3C(C)C)c(=O)[nH]1 [Compound B-24, N-((4,6-dimethyl-2-oxo-1,2-dihydropyridin-3-yl)methyl)-1-isopropyl-6-(piperidin-4-yl)-1H-pyrazolo[3,4-b]pyridine-4-carboxamide] | 0.3 to 1 µM
Cc1cc(C)c(CNC(=O)c2cc(-c3cnc(N)nc3)cc3c2cnn3C2CCCC2)c(=O)[nH]1 [Compound C-30] | < 0.3 µM
Cc1cc(C)c(CNC(=O)c2ccnc3c2cnn3C(C)C)c(=O)[nH]1 [Compound B-127] | 3 to 10 µM
Cc1cc(C)c(CNC(=O)c2cc(C3=CCN(C(=O)C4CCN(C)CC4)CC3)cc3c2cnn3C2CCCC2)c(=O)[nH]1 [Compound D-5, 1-cyclopentyl-N-((4,6-dimethyl-2-oxo-1,2-dihydropyridin-3-yl)methyl)-6-(1-(1-methylpiperidine-4-carbonyl)-1,2,3,6-tetrahydropyridin-4-yl)-1H-indazole-4-carboxamide] | < 0.3 µM
COCc1cc(C)[nH]c(=O)c1CNC(=O)c1cc(C2=CC(C)(C)NC(C)(C)C2)nc2c1cnn2C(C)C [Compound B-21, 1-isopropyl-N-((4-(methoxymethyl)-6-methyl-2-oxo-1,2-dihydropyridin-3-yl)methyl)-6-(2,2,6,6-tetramethyl-1,2,3,6-tetrahydropyridin-4-yl)-1H-pyrazolo[3,4-b]pyridine-4-carboxamide] | 0.3 to 1 µM
Cc1cc(C)c(CNC(=O)c2cc(C3=CCN(C4CCN(CCS(C)(=O)=O)CC4)CC3)nc3c2cnn3C(C)C)c(=O)[nH]1 [Compound B-33, N-((4,6-dimethyl-2-oxo-1,2-dihydropyridin-3-yl)methyl)-1-isopropyl-6-(1-(1-(2-(methylsulfonyl)ethyl)piperidin-4-yl)-1,2,3,6-tetrahydropyridin-4-yl)-1H-pyrazolo[3,4-b]pyridine-4-carboxamide] | < 0.3 µM
Cc1cc(C)c(CNC(=O)c2cc(C(C)C)cc3c2cnn3C2CCCC2)c(=O)[nH]1 [Compound D-20, 1-cyclopentyl-N-((4,6-dimethyl-2-oxo-1,2-dihydropyridin-3-yl)methyl)-6-isopropyl-1H-indazole-4-carboxamide] | 0.3 to 1 µM
Cc1cc(C)c(CNC(=O)c2cc(-c3ccc(CN4CCOCC4)cn3)cc3c2cnn3C2CCCC2)c(=O)[nH]1 [Compound C-15, 1-cyclopentyl-N-((4,6-dimethyl-2-oxo-1,2-dihydropyridin-3-yl)methyl)-6-(5-(morpholinomethyl)pyridin-2-yl)-1H-indazole-4-carboxamide] | < 0.3 µM
Cc1cc(C)c(CNC(=O)c2cc(-c3cn[nH]c3)nc3c2cnn3C(C)C)c(=O)[nH]1 [Compound A-49] | 1 to 3 µM
Cc1cc(C)c(CNC(=O)c2cc(C3CCN(CCO)CC3)cc3c2cnn3C2CCCC2)c(=O)[nH]1 [Compound D-97] | < 0.3 µM
